From patent publication US20090162911A1 (priority 2007, published 2009) come the findings set out here.

Test [1] relates to tolC transposon insertion mutant JW5503. The test is described as follows: Shake flask growth of tolC insertion mutant compared with parental strain. Format: cell-based, E. coli. The protocol:
(§1) Strains of E. coli K12 EC100 having insertions in either the acrA or acrB coding regions, JW0452 and JW0451 respectively, were obtained from the Keio knockout collection described in Example 4. Growth of these strains was compared in the presence of 2-butanol and isobutanol in relation to the parental strain EC100. Overnight cultures were inoculated with a fresh colony and grown in LB at 37° C. with shaking. The next day the culture was diluted 1:100 into 100 ml of fresh LB in a 1 liter flask and grown for approximately 2 hours. The culture was split into 20 ml aliquots in 125 ml plastic screw top flasks. One culture remained unaltered serving as the no add control, and various concentrations of either 2-butanol or isobutanol were added to the remaining flasks. Absorbance (OD600) was monitored over time. Fractional growth yields were determined after 3 hr of exposure and percent improvement was calculated by subtracting the […] and multiplying by 100.
In addition, a to/C transposon insertion mutant of the Keio collection, JW5503, was also assayed.

For test [2], the system named is acrB insertion strain JW0451. Format: cell-based, E. coli. The settings on record: for improved growth over the parental strain: acrB modified strain, 3 hr exposure, LB 37° C.; for tolerance of mutant relative to parent strain: acrB mutant JW0451, FIG. 8. Here is the method:
as §1

Test [3] has as its system acrA insertion strain JW0452. The test is classed as cell-based, E. coli. To be noted: for improved growth over the parental strain: acrA modified strain, 3 hr exposure, LB 37° C.; for tolerance of mutant relative to parent strain: acrA mutant JW0452, FIG. 8. The protocol: as §1
Test [4] relates to acrB transposon mutant line DPD1852. Format: cell-based, E. coli. To be noted: acrB mutation, 18 hr exposure, FIG. 7. The protocol:
Growth of the acrB transposon mutant line, DPD1852 (in Example 2), and the parental strain EC100 were compared in the presence of different butanols. Cultures were grown in LB medium at 37° C. to mid-logarithmic phase and then 200 μl was put into microtiter wells of a Bioscreen device that monitors optical density as a function of time. Triplicate wells contained a culture challenged with a specified concentration of a compound. For 2- and isobutanol the concentrations tested were 0, 0.8, 1.2, 1.4, and 1.6% weight percent. For 1-butanol the concentrations were 0, 0.2, 0.3, 0.4, and 0.6% w/v. For 2-butanone (MEK, methylethylketone) the concentrations were 0, 2.5, 3, 3.5 and 4% w/v.

The test system of test [5] is acrB transposition mutant strain DPD1852. The settings on record: LB with 0.2%, 0.3%, 0.4% or 0.6% 1-butanol (w/v), FIG. 3. Here is the method: Overnight triplicate cultures of each strain were grown and diluted (1:10) into either LB or LB freshly supplemented with 0.2%, 0.3%. 0.4% or 0.6% 1-butanol (w/v). The growth of each culture was followed for approximately 18 hours.
An additional kinetic growth study was performed as described above.

The subject of test [6] is rpoZ::kan line JW3624. To be noted: rpoZ mutant, 0.4 and 0.6% 1-butanol, 18 hr, FIG. 6. Here is the method:
(§2) Shake flask experiments were performed on the acrB rpoZ::kan constructed double mutant line DPD1899, as well as the acrB deletion line DPD1876, the rpoZ::kan line JW3624, and the wild type control BW25113 line. Cultures were grown in LB medium containing 0%, 0.4% or 0.6% 1-butanol in shake flasks. The experiments were performed by inoculating 100 ml of medium in a 250 ml plastic flask with 2 ml of an overnight culture grown from a single colony grown at 37° C. and incubating with shaking for approximately two doubling times (1 hour), to an OD600 between 0.2 and 0.3. Each culture was split into […] in plastic screw top 125 ml flasks and the cultures were maintained at 37° C. in a shaking water bath at 200 rpm. The OD600 was monitored at 0, 30, 90, 120 190, and 260 minutes.
(§3) In the cultures above, a final time point was taken at 18 hr and used to calculate growth yield as a function of 1-butanol challenge. For each line grown in 0, 0.4% or 0.6% 1-butanol, the final 18 hour time point was divided by the no 1-butanol 18 hr time point.

The subject of test [7] is acrB deletion line DPD1876. The settings on record: acrB mutant, 0.4 and 0.6% 1-butanol, 18 hr, FIG. 6. Here is the method: as §2, §3
The test system of test [8] is acrB rpoZ::kan double mutant line DPD1899. The settings on record: 0.4 and 0.6% 1-butanol, 18 hr, FIG. 6. Here is the method: as §2, §3
For test [9], the system named is wild type control BW25113. The settings on record: wild type cells, 0.4 and 0.6% 1-butanol, 18 hr, FIG. 6. Here is the method: as §2, §3
For test [10], the system named is E. coli strain EC100. To be noted: EC100 on solidified LB.
Method: LB agar media supplemented with butanol was prepared fresh one day before innoculating at an appropriate volume and cooled for 2 hours in a 50° C. water bath. LB agar plates supplemented with butanol were prepared by dispensing 67 mls of melted agar, using a peristaltic pump and sterile Nalgene tubing, into sterile Omni trays with lids (Nunc mfg no. 242811). […] The plates were allowed to cool and set for approximately an hour before they were stored overnight in closed anaerobic chambers at room temperature in the chemical/biological hood. The next morning, the chambers harboring the plates were opened and allowed to air dry for approximately 1 hour before using.
Plates were incubated in a closed chamber at 37° C. for 1 day. The number of colonies arising and their sizes were scored. […] Butanol concentrations of 0.4% and 0.6% were chosen to screen for tolerance.

The structures appear in SMILES notation. Where two headings read alike, the source gives them in different places.

As to `CCC(C)O` (stereo not drawn) [2-butanol], the “growth response relative to parental strain” value in [1] is “indistinguishable from the parental strain”. For the same molecule, the “improved growth over the parental strain” value was “about 24%” in test [2] (0.6% of the compound), “about 12%” in test [2] (0.8% of the compound), “about 12%” in test [3] (0.6% of the compound) and “about 5%” in test [3] (0.8% of the compound). Further, the “tolerance of mutant relative to parent strain” value in test [2] and in test [3] was “more tolerant” each time. For the same molecule, the “tolerance (growth improvement over parental EC100)” value in [4] was “improved the tolerance”.

As for `CC(C)CO` [isobutanol], in [1], the “growth response relative to parental strain” value was “indistinguishable from the parental strain”. For the same molecule, the “improved growth over the parental strain” value is “about 20%” in test [2] (0.4% of the compound), “about 2.5%” in test [2] (0.6% of the compound), “about 18%” in [3] (0.4% of the compound) and “about 3.5%” in [3] (0.6% of the compound). In addition, the “tolerance of mutant relative to parent strain” value in [2] and in test [3] was “more tolerant” each time. Besides, the “tolerance (growth improvement over parental EC100)” value in test [4] was “improved the tolerance”.

On to `CCCCO` [1-butanol], for which, in test [5], the “tolerance in terms of growth rate relative to wild type EC100” value is “more tolerant to all of the concentrations of 1-butanol tested than the wild type strain”. Besides, the “growth yield (fractional growth)” value was “higher growth yields than wild type” in [6], “higher growth yields than wild type” in test [7] and “even higher growth yield” in [8]. Besides, the “sensitivity to growth inhibition (fractional growth)” value in test [9] was “most sensitive to growth inhibition”. For the same molecule, the colony size entry in test [10] (0.6% 1-butanol, 37° C., 1 day) is “only pinpoint colonies”. Also, the “concentration with no colony formation after overnight incubation” value in test [10] (37° C.) is ≥ 0.7 % (w/v). In [10] (closed chamber, 37° C., 1 day), the “concentration from which colonies were progressively smaller” value is given as at least 0.2%. Further, the “titer (number of colonies arising)” value in test [10] (range of 0 to 0.6% 1-butanol) was “No change in titer”. For the same molecule, the “tolerance (growth improvement over parental EC100)” value in test [4] was “improved the tolerance”.

As for `CCC(C)=O` [MEK, 2-butanone], the “tolerance (growth improvement over parental EC100)” value in test [4] is given as “improved the tolerance”.
